Measured values reported in publication PMC11149917, “Translational and Therapeutic Evaluation of RAS-GTP Inhibition by RMC-6236 in RAS-Driven Cancers” (Cancer Discovery, 2024).
Several values for one entry are separate records, joined by “and”; a condition that tells them apart may be missing. Equal values may be shown once.

Test system: DUSP6 mRNA in NCI-H441 xenograft tumors
Test: In vivo PD by DUSP6 qPCR and PK/PD relationship
Parameters: species or system mouse
Conditions: for % inhibition of DUSP6 vs control: NCI-H441 xenograft tumor
Protocol: Tumor-bearing animals were randomized and assigned into groups (n = 1–10/group). The vehicle at 10 mL/kg or RMC-6236 at indicated doses was administered via oral gavage daily, and animals were treated for 28 days, or up to 90 days if PFS was being assessed. […] For single-dose PKPD study, mice were randomized and assigned into groups (n = 3/dose/time point). A single dose of RMC-6236 was administered orally at either 3, 10, or 25 mg/kg. Blood and tissues, including the tumor, brain, colon, ear skin, and muscle, were harvested at indicated time points. Whole blood was collected in K2EDTA Microtainer tubes, incubated for 5 minutes, and snap-frozen in liquid nitrogen. The tissue was either fixed in 10% formalin or snap-frozen in liquid nitrogen for further analysis.
RNA was extracted from at least 20 mg of tissue using an RNeasy Mini Kit (Qiagen, 74104) and a High-Throughput Tissue grinder following the manufacturer's protocol. Reverse transcription was carried out using High-Capacity cDNA Reverse Transcription Kit (ABI, 4368814) according to the manufacturer's protocol. The cDNA product was used for qPCR analysis using TaqMan Gene-Expression Master Mix (ABI, 4369016). TaqMan primer probes specific to DUSP6 (human—Hs00737962_m1, murine—Mm00518185_m1, FAM-MGB) and 18S (RNA18S1; human—Hs99999901_s1, murine—Mm03928990_g1, FAM-MGB, used as an internal control gene) were used to detect the levels from each sample in duplicates using a 10 µL final reaction volume in a 384-well clear optical reaction plate. For qPCR, Ct values of DUSP6 and 18S were obtained for analysis. DUSP6 Ct value was normalized to 18S, and then the mean relative mRNA expression levels of each group were normalized to the vehicle control group. Values were plotted as relative change in mRNA expression compared with vehicle. Means ± SEM were shown.
Concentrations of RMC-6236 in tumor or normal tissues and percentage of DUSP6 inhibition as compared with the vehicle control from individual animals were collected and analyzed post a single dose of RMC-6236 ranging from 0.3 to 100 mg/kg (Supplementary Table S6). A 3-parameter sigmoidal exposure–response model was fitted to the data in GraphPad Prism to derive EC50 and EC90 values.

For `CCn1c(-c2cc(N3CCN(C)CC3)cnc2[C@H](C)OC)c2c3cc(ccc31)-c1csc(n1)C[C@H](NC(=O)[C@H]1C[C@@H]1C)C(=O)N1CCC[C@H](N1)C(=O)OCC(C)(C)C2` [RMC-6236], the “DUSP6 mRNA Expression (%)” value (Model Development Dataset, 25mg/kg_study8, 1 h) was 30.3376%, the “DUSP6 mRNA Expression (%)” value (Model Development Dataset, 25mg/kg_study8, 2 h) was 11.6899% and the “DUSP6 mRNA Expression (%)” value (Model Development Dataset, 25mg/kg_study8, 8 h) was 1.524%. For the same compound, the “DUSP6 mRNA Expression (%)” value (Model Development Dataset, 25mg/kg_study8, 24 h) was 8.817%, the “DUSP6 mRNA Expression (%)” value (Model Development Dataset, 25mg/kg_study8r (doses every 24 h, 0-[…]), 240 h) was 3.766% and the “DUSP6 mRNA Expression (%)” value (Model Development Dataset, 40mg/kg_study8, 1 h) was 65.2423%. The “DUSP6 mRNA Expression (%)” value (Model Development Dataset, 40mg/kg_study8, 2 h) was 13.6285%, the “DUSP6 mRNA Expression (%)” value (Model Development Dataset, 40mg/kg_study8, 8 h) was 4.661% and the “DUSP6 mRNA Expression (%)” value (Model Development Dataset, 40mg/kg_study8, 24 h) was 3.474%. For the same compound, the “DUSP6 mRNA Expression (%)” value (Model Development Dataset, 40mg/kg_study8r (doses every 24 h, 0-[…]), 240 h) was 0.8569%, the “DUSP6 mRNA Expression (%)” value (Model Validation Dataset, 10mg/kg_study6, 1 h) was 45.187% and the “DUSP6 mRNA Expression (%)” value (Model Validation Dataset, 10mg/kg_study6, 8 h) was 5.053%. The “DUSP6 mRNA Expression (%)” value (Model Validation Dataset, 10mg/kg_study6, 24 h) was 13.225%, the “DUSP6 mRNA Expression (%)” value (Model Validation Dataset, 10mg/kg_study6, 48 h) was 62.867% and the “DUSP6 mRNA Expression (%)” value (Model Validation Dataset, 25mg/kg_study6, 1 h) was 48.7936%. For the same compound, the “DUSP6 mRNA Expression (%)” value (Model Validation Dataset, 25mg/kg_study6, 8 h) was 5.7726%, the “DUSP6 mRNA Expression (%)” value (Model Validation Dataset, 25mg/kg_study6, 24 h) was 9.122% and the “DUSP6 mRNA Expression (%)” value (Model Validation Dataset, 25mg/kg_study6, 48 h) was 14.7114%. For the same compound, the “DUSP6 mRNA Expression (%)” value (Model Validation Dataset, 25mg/kg_study6, 72 h) was 12.5199%, the “DUSP6 mRNA Expression (%)” value (Model Validation Dataset, 50mg/kg_study6, 1 h) was 16.7798% and the “DUSP6 mRNA Expression (%)” value (Model Validation Dataset, 50mg/kg_study6, 8 h) was 5.52%. The “DUSP6 mRNA Expression (%)” value (Model Validation Dataset, 50mg/kg_study6, 24 h) was 5.873%, the “DUSP6 mRNA Expression (%)” value (Model Validation Dataset, 50mg/kg_study6, 48 h) was 10.9912% and the “DUSP6 mRNA Expression (%)” value (Model Validation Dataset, 50mg/kg_study6, 72 h) was 10.0613%. For the same compound, the EC50 (Mus musculus, NCI-H441, read-out: EC50, inhibition of DUSP6 expression vs RMC-6236 concentration (PK/PD relationship)) was 0.117 µM, the EC90 (Mus musculus, NCI-H441, read-out: EC90, inhibition of DUSP6 expression vs RMC-6236 concentration (PK/PD relationship)) was 1.12 µM and the “% inhibition of DUSP6 vs control” value (study NCI-H441#6, 10 mg/kg, 8h) was 94.3996% and 97.36% and 93.0812%. For the same compound, the “% inhibition of DUSP6 vs control” value (study NCI-H441#6, 10 mg/kg, 24h) was 92.8123% and 75.0577% and 92.455%, the “% inhibition of DUSP6 vs control” value (study NCI-H441#6, 25 mg/kg, 8h) was 92.2964% and 95.8141% and 94.5716% and the “% inhibition of DUSP6 vs control” value (study NCI-H441#6, 25 mg/kg, 24h) was 90.5813% and 91.1816% and 90.8706%. The “% inhibition of DUSP6 vs control” value (study NCI-H441#6, 25 mg/kg, 48h) was 88.2424% and 92.0524% and 75.571%, the “% inhibition of DUSP6 vs control” value (study NCI-H441#6, 50 mg/kg, 8h) was 94.9176% and 94.1618% and 94.3607% and the “% inhibition of DUSP6 vs control” value (study NCI-H441#6, 50 mg/kg, 24h) was 95.6815% and 94.6463% and 92.0524%. For the same compound, the “% inhibition of DUSP6 vs control” value (study NCI-H441#6, 50 mg/kg, 48h) was 89.9053% and 88.838% and 88.2831%, the “% inhibition of DUSP6 vs control” value (study NCI-H441#6, 100 mg/kg, 8h) was 96.2144% and 97.8257% and 94.7565% and the “% inhibition of DUSP6 vs control” value (study NCI-H441#6, 100 mg/kg, 24h) was 96.5645% and 97.2858% and 99.0371%. The “% inhibition of DUSP6 vs control” value (study NCI-H441#6, 100 mg/kg, 48h) was 97.3783% and 95.7557% and 95.9427%, the “% inhibition of DUSP6 vs control” value (study NCI-H441#8, 25 mg/kg, 2h) was 93.3108% and 86.9874% and 84.6322% and the “% inhibition of DUSP6 vs control” value (study NCI-H441#8, 25 mg/kg, 8h) was 99.2306% and 96.8685% and 99.3302%. The “% inhibition of DUSP6 vs control” value (study NCI-H441#8, 25 mg/kg, 24h) was 93.9294% and 85.711% and 93.9083%, the “% inhibition of DUSP6 vs control” value (study NCI-H441#8, 40 mg/kg, 2h) was 77.4222% and 82.1626% and 99.5296% and the “% inhibition of DUSP6 vs control” value (study NCI-H441#8, 40 mg/kg, 8h) was 94.9481% and 94.7152% and 96.3527%. For the same compound, the “% inhibition of DUSP6 vs control” value (study NCI-H441#8, 40 mg/kg, 24h) was 94.2767% and 98.3791% and 96.9223% and the “% inhibition of DUSP6 vs control” value (study NCI-H441#10, 0.3 mg/kg, 8h) was 46.2112% and 70.874% and 74.5563%.
